According to patent US10894782B2, “Modulators of P97 AAA ATPase activity” (University of Pittsburgh—Of the Commonwealth System of …, priority 2016, dated 2021):

What follows are compounds tested against P97 (Homo sapiens (Human), UniProt P55072) (assay: P97 Biomolgreen ATPase assay, 200 μM ATP). Details: P97 Biomolgreen, IC50 (μM).
Sequence of P97 (P55072 whole entry): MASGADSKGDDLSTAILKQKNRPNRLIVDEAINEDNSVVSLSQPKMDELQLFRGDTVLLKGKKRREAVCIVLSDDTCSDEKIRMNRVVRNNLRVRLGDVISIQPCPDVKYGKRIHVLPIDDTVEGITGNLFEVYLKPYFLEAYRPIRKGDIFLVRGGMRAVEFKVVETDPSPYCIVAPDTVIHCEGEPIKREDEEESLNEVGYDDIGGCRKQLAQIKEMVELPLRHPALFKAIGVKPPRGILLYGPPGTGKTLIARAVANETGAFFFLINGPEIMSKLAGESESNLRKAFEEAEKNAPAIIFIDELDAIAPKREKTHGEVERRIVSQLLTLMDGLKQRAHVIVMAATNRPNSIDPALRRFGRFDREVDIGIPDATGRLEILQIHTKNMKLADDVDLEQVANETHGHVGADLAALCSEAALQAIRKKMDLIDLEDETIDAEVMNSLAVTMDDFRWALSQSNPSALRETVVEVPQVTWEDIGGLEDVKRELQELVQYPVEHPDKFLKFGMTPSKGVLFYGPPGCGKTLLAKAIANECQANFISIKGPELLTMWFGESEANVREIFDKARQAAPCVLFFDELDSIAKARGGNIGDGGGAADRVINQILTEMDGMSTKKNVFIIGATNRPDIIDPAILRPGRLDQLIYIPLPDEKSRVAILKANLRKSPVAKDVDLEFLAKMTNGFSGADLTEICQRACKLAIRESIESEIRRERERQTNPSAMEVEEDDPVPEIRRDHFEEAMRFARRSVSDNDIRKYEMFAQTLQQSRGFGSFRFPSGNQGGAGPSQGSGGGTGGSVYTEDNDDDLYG
Assay type: biochemical
Work on [2H]C1([2H])C([2H])([2H])C([2H])([2H])C([2H])(Sc2nnc(COc3ccc(C#CC(C)OC(=O)NC(C)C)c(C)c3)n2-c2cccnc2)C1([2H])[2H] (centres unmarked) [Compound 1] yielded an IC50 of 0.16 µM. [2H]C1([2H])C([2H])([2H])C([2H])([2H])C([2H])(Sc2nnc(COc3ccc(C#CC(C)N4CCOCC4)c(C)c3)n2-c2cccnc2)C1([2H])[2H] (centres unmarked) [Compound 3] gave an IC50 of 0.17 µM. For [2H]C1([2H])C([2H])([2H])C([2H])([2H])C([2H])(Sc2nnc(COc3ccc(C#CCOC(=O)N4CCOCC4)c(C)c3)n2-c2cccnc2)C1([2H])[2H] [Compound 6], the IC50 was 0.044 µM. [2H]C1([2H])C([2H])([2H])C([2H])([2H])C([2H])(Sc2nnc(COc3ccc(C#CCOC(=O)NCC(F)(F)F)c(C)c3)n2-c2cccnc2)C1([2H])[2H] [Compound 20] showed an IC50 of 0.034 µM. Compound [2H]C1([2H])C([2H])([2H])C([2H])([2H])C([2H])(Sc2nnc(COc3ccc(C#CCOC(=O)NCCN4CCN(C(C)C)CC4)c(C)c3)n2-c2cccnc2)C1([2H])[2H] [Compound 21] has an IC50 of 0.034 µM. With [2H]C1([2H])C([2H])([2H])C([2H])([2H])C([2H])(Sc2nnc(COc3ccc(C#CCOC(=O)NC(C)C)c(C)c3)n2-c2cccnc2)C1([2H])[2H] [Compound 23] the IC50 was 0.032 µM. With [2H]C1([2H])C([2H])([2H])C([2H])([2H])C([2H])(Sc2nnc(COc3ccc(C#CCOC(=O)NC)c(C)c3)n2-c2cccnc2)C1([2H])[2H] [Compound 24] the IC50 was 0.026 µM. In the case of [2H]C1([2H])C([2H])([2H])C([2H])([2H])C([2H])(Sc2nnc(COc3ccc(C#CC(C)O)c(C)c3)n2-c2cccnc2)C1([2H])[2H] (centres unmarked) [Compound 26], the IC50 is reported as 0.068 µM. [2H]C1([2H])C([2H])([2H])C([2H])([2H])C([2H])(Sc2nnc(COc3ccc(C#CC(C)OC)c(C)c3)n2-c2cccnc2)C1([2H])[2H] (centres unmarked) [Compound 27] showed an IC50 of 0.16 µM. In the case of [2H]C1([2H])C([2H])([2H])C([2H])([2H])C([2H])(Sc2nnc(COc3ccc(C#CCOC(=O)NCCc4ncnn4C)c(C)c3)n2-c2cccnc2)C1([2H])[2H] [Compound 31], the IC50 is reported as 0.052 µM. [2H]C1([2H])C([2H])([2H])C([2H])([2H])C([2H])(Sc2nnc(COc3ccc(C#CCOC(=O)NCCN4CCCN(C(C)C)CC4)c(C)c3)n2-c2cccnc2)C1([2H])[2H] [Compound 32] showed an IC50 of 0.023 µM. Work on [2H]C1([2H])C([2H])([2H])C([2H])([2H])C([2H])(Sc2nnc(COc3ccc(C#CCOC(=O)NCc4cc(C)on4)c(C)c3)n2-c2cccnc2)C1([2H])[2H] [Compound 35] yielded an IC50 of 0.064 µM. For [2H]C1([2H])C([2H])([2H])C([2H])([2H])C([2H])(Sc2nnc(COc3ccc(C#CCOC)c(C)c3)n2-c2cccnc2)C1([2H])[2H] [Compound 36], the IC50 was 0.069 µM. Work on [2H]C1([2H])C([2H])([2H])C([2H])([2H])C([2H])(Sc2nnc(COc3ccc(C#CCOC(=O)N4CCC4)c(C)c3)n2-c2cccnc2)C1([2H])[2H] [Compound 37] yielded an IC50 of 0.07 µM. [2H]C1([2H])C([2H])([2H])C([2H])([2H])C([2H])(Sc2nnc(COc3ccc(C#CCNC4CCN(C(C)C)CC4)c(C)c3)n2-c2cccnc2)C1([2H])[2H] [Compound 38] gave an IC50 of 0.095 µM. [2H]C1([2H])C([2H])([2H])C([2H])([2H])C([2H])(Sc2nnc(COc3ccc(C#CCN4CCS(=O)(=O)CC4)c(C)c3)n2-c2cccnc2)C1([2H])[2H] [Compound 41] showed an IC50 of 0.16 µM. [2H]C1([2H])C([2H])([2H])C([2H])([2H])C([2H])(Sc2nnc(COc3ccc(C#CCNC(=O)OC(C)(C)C)c(C)c3)n2-c2cccnc2)C1([2H])[2H] [Compound 46] showed an IC50 of 0.19 µM. In the case of [2H]C1([2H])C([2H])([2H])C([2H])([2H])C([2H])(Sc2nnc(COc3ccc(C#CC(O)c4ccccc4)c(C)c3)n2-c2cccnc2)C1([2H])[2H] (centres unmarked) [Compound 52], the IC50 is reported as 0.55 µM. [2H]C1([2H])C([2H])([2H])C([2H])([2H])C([2H])(Sc2nnc(COc3ccc(C#CCNCC4(N5CCN(C(C)C)CC5)CCC4)c(C)c3)n2-c2cccnc2)C1([2H])[2H] [Compound 67] gave an IC50 of 0.2 µM. Work on [2H]C1([2H])C([2H])([2H])C([2H])([2H])C([2H])(Sc2nnc(COc3ccc(C#CCNCCN4CCN(C)CC4)c(C)c3)n2-c2cccnc2)C1([2H])[2H] [Compound 68] yielded an IC50 of 0.17 µM.

Same assay, conditions: read-out: P97 Biomolgreen, IC50
C#Cc1ccc(OCc2nnc(SC3CCCC3)n2-c2cccnc2)cc1C [Compound 2] showed an IC50 of 0.049 µM. With Cc1cc(OCc2nnc(SC3C=CCCC3)n2-c2cccnc2)ccc1C#CCN (centres unmarked) [Compound 4] the IC50 was 0.044 µM. For Cc1cc(OCc2nnc(SC3CCCC3)n2-c2cccnc2)ccc1C#CC#N [Compound 5], the IC50 was 0.021 µM. With Cc1ccc(S(=O)(=O)NCC#Cc2ccc(OCc3nnc(SC4C=CCCC4)n3-c3cccnc3)cc2C)cc1 (centres unmarked) [Compound 7] the IC50 was 0.13 µM. Work on Cc1cc(OCc2nnc(SC3CCCC3)n2-c2cccnc2)ccc1C#CCN1CCOCC1 [Compound 8] yielded an IC50 of 0.039 µM. Cc1cc(OCc2nnc(SC3CCCC3)n2-c2cccnc2)ccc1C#CCCc1ccccc1 [Compound 9] showed an IC50 of 0.1 µM. Compound Cc1cc(OCc2nnc(SC3CCCC3)n2-c2cccnc2)ccc1C#CCNC(=O)C(C)(C)C [Compound 10] has an IC50 of 0.092 µM. Compound Cc1cc(OCc2nnc(SC3CCCC3)n2-c2cccnc2)ccc1C#CCNC(C)C [Compound 11] has an IC50 of 0.007 µM. Work on COC(=O)NCC#Cc1ccc(OCc2nnc(SC3CCCC3)n2-c2cccnc2)cc1C [Compound 12] yielded an IC50 of 0.029 µM. Cc1cc(OCc2nnc(SC3CCCC3)n2-c2cccnc2)ccc1C#CCNS(C)(=O)=O [Compound 13] gave an IC50 of 0.05 µM. With Cc1cc(OCc2nnc(SC3C=CCCC3)n2-c2cccnc2)ccc1C#CCNS(C)(=O)=O (centres unmarked) [Compound 14] the IC50 was 0.035 µM. Cc1cc(OCc2nnc(SC3C=CCCC3)n2-c2cccnc2)ccc1C#CCNS(=O)(=O)c1ccc(F)cc1 (centres unmarked) [Compound 15] gave an IC50 of 0.074 µM. Cc1cc(OCc2nnc(SC3C=CCCC3)n2-c2cccnc2)ccc1C#CCNC(C)C (centres unmarked) [Compound 16] showed an IC50 of 0.055 µM. Compound Cc1cc(OCc2nnc(SC3C=CCCC3)n2-c2cccnc2)ccc1C#CCNC1CCCCC1 (centres unmarked) [Compound 17] has an IC50 of 0.04 µM. Compound Cc1cc(OCc2nnc(SC3C=CCCC3)n2-c2cccnc2)ccc1C#CCNS(=O)(=O)C1CC1 (centres unmarked) [Compound 18] has an IC50 of 0.035 µM. For Cc1cc(OCc2nnc(SC3C=CCCC3)n2-c2cccnc2)ccc1C#CCNC1CCN(C)CC1 (centres unmarked) [Compound 19], the IC50 was 0.036 µM. Cc1cc(OCc2nnc(SC3CCCC3)n2-c2cccnc2)ccc1C#CCOC(=O)NC(C)C [Compound 22] showed an IC50 of 0.027 µM. For Cc1cc(OCc2nnc(SC3C=CCCC3)n2-c2cccnc2)ccc1C#CCN(C)S(C)(=O)=O (centres unmarked) [Compound 25], the IC50 was 0.066 µM. Cc1cc(OCc2nnc(SC3C=CCCC3)n2-c2cccnc2)ccc1C#CC(C)(C)O (centres unmarked) [Compound 28] was tested, and the IC50 was 0.096 µM. Compound Cc1cc(OCc2nnc(SC3C=CCCC3)n2-c2cccnc2)ccc1C#CCOC(=O)NCCN1CCN(C(C)C)CC1 (centres unmarked) [Compound 29] has an IC50 of 0.019 µM. Compound Cc1cc(OCc2nnc(SC3C=CCCC3)n2-c2cccnc2)ccc1C#CCOC(=O)NCC1(N2CCN(C(C)C)CC2)CCC1 (centres unmarked) [Compound 30] has an IC50 of 0.011 µM. Compound Cc1cc(OCc2nnc(SC3C=CCCC3)n2-c2cccnc2)ccc1C#CCNS(=O)(=O)N(C)C (centres unmarked) [Compound 33] has an IC50 of 0.043 µM. For Cc1cc(OCc2nnc(SC3C=CCCC3)n2-c2cccnc2)ccc1C#CC1(O)COC1 (centres unmarked) [Compound 34], the IC50 was 0.098 µM. With Cc1cc(OCc2nnc(SC3C=CCCC3)n2-c2cccnc2)ccc1C#CCNCc1ccc(F)cc1 (centres unmarked) [Compound 39] the IC50 was 0.11 µM. With Cc1cc(OCc2nnc(SC3C=CCCC3)n2-c2cccnc2)ccc1C#CCNC(=O)OC(C)(C)C (centres unmarked) [Compound 40] the IC50 was 0.14 µM. Cc1cc(OCc2nnc(SC3CCCC3)n2-c2cccnc2)ccc1C#CCNC(=O)OC(C)(C)C [Compound 43] gave an IC50 of 0.048 µM. Compound Cc1cc(OCc2nnc(SC3CCCC3)n2-c2cccnc2)ccc1C#CCN1CCS(=O)(=O)CC1 [Compound 44] has an IC50 of 0.18 µM. With Cc1cc(OCc2nnc(SC3C=CCCC3)n2-c2cccnc2)ccc1C#CC(C)(C)NC(=O)OC(C)(C)C (centres unmarked) [Compound 45] the IC50 was 0.64 µM. Work on Cc1cc(OCc2nnc(SC3C=CCCC3)n2-c2cccnc2)ccc1C#CCN1C(=O)c2ccccc2C1=O (centres unmarked) [Compound 47] yielded an IC50 of 0.29 µM. For C#Cc1ccc(OCc2nnc(SC3CC3)n2-c2cccnc2)cc1C [Compound 48], the IC50 was 0.67 µM. Cc1cc(OCc2nnc(SC3CCCC3)n2-c2cccnc2)ccc1C#CCN1C(=O)c2ccccc2C1=O [Compound 50] was tested, and the IC50 was 0.28 µM. In the case of C#Cc1ccc(OCc2nnc(CC3CCCC3)n2-c2cccnc2)cc1C [Compound 51], the IC50 is reported as 0.44 µM. With Cc1cc(OCc2nnc(SC3C=CCCC3)n2-c2cccnc2)ccc1C#CC1(NC(=O)OC(C)(C)C)CCCCC1 (centres unmarked) [Compound 53] the IC50 was 1.1 µM. With Cc1cc(OCc2nnc(SC3CC3)n2-c2cccnc2)ccc1C#CCNC(=O)OC(C)(C)C [Compound 54] the IC50 was 2 µM. For N#Cc1ccc(C#CCOCc2nnc(SC3CCCC3)n2-c2cccnc2)cc1 [Compound 56], the IC50 was > 6.7 µM. Cc1cc(OCc2nnc(SC3CCCC3)n2-c2cccnc2)ccc1C#CCO [Compound 58] was tested, and the IC50 was 0.093 µM. In the case of Cc1cc(OCc2nnc(SC3C=CCCC3)n2-c2cccnc2)ccc1C#CCOC(=O)NCCN1CCN(C)CC1 (centres unmarked) [Compound 59], the IC50 is reported as 0.025 µM. For Cc1cc(OCc2nnc(SC3C=CCCC3)n2-c2cccnc2)ccc1C#CCOC(=O)NCCN1CCN(C(C)C)CC1 (centres unmarked) [Compound 60], the IC50 was 0.019 µM. For Cc1cc(OCc2nnc(SC3C=CCCC3)n2-c2cccnc2)ccc1C#CCOC(=O)NCCC(=O)N1CCN(C)CC1 (centres unmarked) [Compound 61], the IC50 was 0.029 µM. In the case of Cc1cc(OCc2nnc(SC3C=CCCC3)n2-c2cccnc2)ccc1C#CC(OC(=O)NCCN1CCN(C(C)C)CC1)C(F)(F)F (centres unmarked) [Compound 62], the IC50 is reported as 0.11 µM. Work on Cc1cc(OCc2nnc(SC3C=CCCC3)n2-c2cccnc2)ccc1C#CCNS(=O)(=O)N1CCOCC1 (centres unmarked) [Compound 63] yielded an IC50 of 0.048 µM. Cc1cc(OCc2nnc(SC3C=CCCC3)n2-c2cccnc2)ccc1C#CCNS(=O)(=O)N1CCCC1 (centres unmarked) [Compound 64] gave an IC50 of 0.06 µM. Cc1cc(OCc2nnc(SC3C=CCCC3)n2-c2cccnc2)ccc1C#CCNS(=O)(=O)N1CCN(C)CC1 (centres unmarked) [Compound 65] showed an IC50 of 0.047 µM. For Cc1cc(OCc2nnc(CC3CCCC3)n2-c2cccnc2)ccc1C#CCOC(=O)NCCN1CCN(C(C)C)CC1 [Compound 66], the IC50 was 0.12 µM. Cc1cc(OCc2nnc(CC3CCCC3)n2-c2cccnc2)ccc1C#CCOC(=O)NCCN1CCN(C)CC1 [Compound 69] showed an IC50 of 0.066 µM.
